Biological target: REV-ERBα LBD (Homo sapiens, UniProt P20393, DEL324-422)
Assay: biochemical
Conditions: FRET assay; 6xHistag-REV-ERBα LBD with FITC-labeled SMRT corepressor peptide; read-out: REVERBα (Agonism of REV-ERBα, EC50)
In short: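 Serially diluted ligands were incubated 2 h at 4° C, in triplicate, with E. coli-expressed His-REV-ERBα LBD (281-614 Δ324-422 or 381-579; 4 nM), Tb-anti-His (1 nM) and FITC-labelled SMRT peptide (400 nM). EC50 came from sigmoidal fits of the 520/495 nm TR-FRET ratio.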

Sequence of REV-ERBα LBD (P20393 with tags, fused parts or gaps DEL324-422): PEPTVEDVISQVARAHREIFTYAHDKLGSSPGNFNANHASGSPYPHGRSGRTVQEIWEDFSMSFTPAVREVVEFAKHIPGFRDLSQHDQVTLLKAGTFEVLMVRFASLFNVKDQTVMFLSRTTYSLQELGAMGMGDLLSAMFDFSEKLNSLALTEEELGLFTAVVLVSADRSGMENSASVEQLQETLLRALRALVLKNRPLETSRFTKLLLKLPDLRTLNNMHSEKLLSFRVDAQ
Sequence of REV-ERBα LBD (Q9Y618 2335-2356 partner limits assumed): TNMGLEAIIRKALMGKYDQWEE

EC50	SMILES
< 100 nM	CC(C)(C)Cn1cc([C@H](NS(=O)(=O)C2CC2)C(F)F)c2cc(F)c(-c3c(C#N)cccc3C(F)(F)F)cc21 [Compound 108, N-((1S)-1-(6-(2-cyano-6-(trifluoromethyl)phenyl)-5-fluoro-1-neopentyl-1H-indol-3-yl)-2,2-difluoroethyl)cyclopropanesulfonamide]
< 100 nM	O=S(=O)(N[C@@H](c1cn(C2CCC2)c2cc(-c3ccc(F)cc3C(F)(F)F)c(F)cc12)C(F)F)C1CC1 [Compound 154, (S)—N-(1-(1-cyclobutyl-5-fluoro-6-(4-fluoro-2-(trifluoromethyl)phenyl)-1H-indol-3-yl)-2,2-difluoroethyl)cyclopropanesulfonamide]
< 100 nM	CC(NS(=O)(=O)C1CC1)c1cn(CC(C)(C)C)c2cc(-c3ncc(F)cc3C#N)c(F)cc12 (stereo not shown) [Compound 63, N-(1-(6-(3-cyano-5-fluoropyridin-2-yl)-5-fluoro-1-neopentyl-1H-indol-3-yl)ethyl)cyclopropanesulfonamide]
< 100 nM	CN(C)S(=O)(=O)N[C@@H](c1cn(CC(C)(C)C)c2cc(-c3nccnc3C(F)(F)F)ccc12)C(F)F [Compound 51]
< 100 nM	N#Cc1nccc(C(F)(F)F)c1-c1cc2c(cc1F)c([C@H](NS(=O)(=O)C1CC1)C(F)F)cn2C1CCC1 [Compound 159, N-((1S)-1-(6-(2-cyano-4-(trifluoromethyl)pyridin-3-yl)-1-cyclobutyl-5-fluoro-1H-indol-3-yl)-2,2-difluoroethyl)cyclopropanesulfonamide]
> 1000 nM	O=S(=O)(N[C@@H](c1cn(C2CNC2)c2cc(-c3ccc(F)cc3C(F)(F)F)c(F)cc12)C(F)F)C1CC1 [Compound 152, (S)—N-(1-(1-(azetidin-3-yl)-5-fluoro-6-(4-fluoro-2-(trifluoromethyl)phenyl)-1H-indol-3-yl)-2,2-difluoroethyl)cyclopropanesulfonamide]
100 to 1000 nM	CC(C)(C)Cn1cc([C@H](NS(=O)(=O)C2CC2)C(F)(F)F)c2ccc(-c3cc(F)ccc3C#N)cc21 [Compound 2, (S)—N-(1-(6-(2-cyano-5-fluorophenyl)-1-neopentyl-1H-indol-3-yl)-2,2,2-trifluoroethyl)cyclopropanesulfonamide]
< 100 nM	Cc1cnc(-c2cc3c(cc2F)c([C@H](NS(=O)(=O)C2CC2)C(F)F)cn3CC(C)(C)C)c(C(F)(F)F)n1 [Compound 144, (S)—N-(2,2-difluoro-1-(5-fluoro-6-(5-methyl-3-(trifluoromethyl)pyrazin-2-yl)-1-neopentyl-1H-indol-3-yl)ethyl)cyclopropanesulfonamide]
< 100 nM	CC(C)(C)Cn1cc([C@H](NS(=O)(=O)C2CC2)C(F)F)c2ccc(-c3cccnc3C(F)F)cc21 [Compound 87, (S)—N-(1-(6-(2-(difluoromethyl)pyridin-3-yl)-1-neopentyl-1H-indol-3-yl)-2,2-difluoroethyl)cyclopropanesulfonamide]
100 to 1000 nM	CC(C)(C)Cn1cc([C@H](NS(=O)(=O)C2CC2)C(F)F)c2ccc(-c3c(C(F)(F)F)ccc[n+]3[O-])cc21 [Compound 106, (S)-2-(3-(1-(cyclopropanesulfonamido)-2,2-difluoroethyl)-1-neopentyl-1H-indol-6-yl)-3-(trifluoromethyl)pyridine 1-oxide]
100 to 1000 nM	CN1CC(n2cc([C@H](NS(=O)(=O)C3CC3)C(F)F)c3cc(F)c(-c4ccc(F)cc4C(F)(F)F)cc32)C1 [Compound 168, (S)—N-(2,2-difluoro-1-(5-fluoro-6-(4-fluoro-2-(trifluoromethyl)phenyl)-1-(1-methylazetidin-3-yl)-1H-indol-3-yl)ethyl)cyclopropanesulfonamide]
< 100 nM	O=S(=O)(N[C@@H](c1cn(C2CCC2)c2cc(-c3cccnc3C(F)(F)F)c(F)cc12)C(F)F)C1CC1 [Compound 146, (S)—N-(1-(1-cyclobutyl-5-fluoro-6-(2-(trifluoromethyl)pyridin-3-yl)-1H-indol-3-yl)-2,2-difluoroethyl)cyclopropanesulfonamide]
< 100 nM	Cc1ncc(F)cc1-c1cc2c(cc1F)c(C(C)NS(=O)(=O)C1CC1)cn2CC(C)(C)C (stereo not shown) [Compound 66, N-(1-(5-fluoro-6-(5-fluoro-2-methylpyridin-3-yl)-1-neopentyl-1H-indol-3-yl)ethyl)cyclopropanesulfonamide]
< 100 nM	Cc1ncnc(C(F)F)c1-c1ccc2c([C@H](NS(=O)(=O)C3CC3)C(F)F)cn(CC(C)(C)C)c2c1 [Compound 120, (S)—N-(1-(6-(4-(difluoromethyl)-6-methylpyrimidin-5-yl)-1-neopentyl-1H-indol-3-yl)-2,2-difluoroethyl)cyclopropanesulfonamide]
< 100 nM	CC(C)(C)Cn1cc([C@H](NS(=O)(=O)C2CC2)C(F)F)c2cc(F)c(C3CCOCC3)cc21 [Compound 172, (S)—N-(2,2-difluoro-1-(5-fluoro-1-neopentyl-6-(tetrahydro-2H-pyran-4-yl)-1H-indol-3-yl)ethyl)cyclopropanesulfonamide]
< 100 nM	CC(NS(=O)(=O)C1CC1)c1cn(CC(C)(C)C)c2cc(-c3c(F)cccc3C#N)ccc12 (single isomer, unassigned) [Compound 27, (S or R) N-[(1R)-1-[6-(2-cyano-6-fluoro-phenyl)-1-(2,2-dimethylpropyl)indol-3-yl]ethyl]cyclo]

EC50	SMILES
< 100 nM	CC(C)(C)Cn1cc([C@H](NS(=O)(=O)C2CC2)C(F)F)c2ccc(-c3ncccc3F)cc21 [Compound 83, (S)—N-(2,2-difluoro-1-(6-(3-fluoropyridin-2-yl)-1-neopentyl-1H-indol-3-yl)ethyl)cyclopropanesulfonamide]
< 100 nM	CC(NS(=O)(=O)C1CC1)c1cn(CC(C)(C)C)c2cc(-c3ncccc3C3CC3)c(F)cc12 (stereo not shown) [Compound 60, N-(1-(6-(3-cyclopropylpyridin-2-yl)-5-fluoro-1-neopentyl-1H-indol-3-yl)ethyl)cyclopropanesulfonamide]
< 100 nM	CC(C)(C)Cn1cc([C@H](NS(=O)(=O)C2CC2)C(F)F)c2ccc(-c3nccnc3C(F)(F)F)cc21 [Compound 47, (S)—N-(2,2-difluoro-1-(1-neopentyl-6-(3-(trifluoromethyl)pyrazin-2-yl)-1H-indol-3-yl)ethyl)cyclopropanesulfonamide]
< 100 nM	CC(NS(=O)(=O)C1CC1)c1cn(CC(C)(C)C)c2cc(-c3ncccc3OC(F)F)c(F)cc12 (stereo not shown) [Compound 61, N-(1-(6-(3-(difluoromethoxy)pyridin-2-yl)-5-fluoro-1-neopentyl-1H-indol-3-yl)ethyl)cyclopropanesulfonamide]
< 100 nM	CC(C)(C)Cn1cc([C@H](NS(=O)(=O)C2CC2)C(F)F)c2ccc(-c3ncccc3C#N)cc21 [Compound 40, (S)—N-(1-(6-(3-cyanopyridin-2-yl)-1-neopentyl-1H-indol-3-yl)-2,2-difluoroethyl)cyclopropanesulfonamide]
< 100 nM	CC(C)(C)Cn1cc([C@H](NS(=O)(=O)C2CC2)C(F)F)c2ccc(-c3ncc(F)cc3F)cc21 [Compound 84, (S)—N-(1-(6-(3,5-difluoropyridin-2-yl)-1-neopentyl-1H-indol-3-yl)-2,2-difluoroethyl)cyclopropanesulfonamide]
< 100 nM	CC(NS(=O)(=O)C1CC1)c1cn(CC(C)(C)C)c2cc(C3CCOC3)c(F)cc12 (stereo not shown) [Compound 34, N-(1-(5-fluoro-1-neopentyl-6-(tetrahydrofuran-3-yl)-1H-indol-3-yl)ethyl)cyclopropanesulfonamide]
100 to 1000 nM	CC(C)(C)Cn1cc([C@H](NS(=O)(=O)C2CC2)C(F)F)c2ccc(-c3nccnc3C#N)cc21 [Compound 48, (S)—N-(1-(6-(3-cyanopyrazin-2-yl)-1-neopentyl-1H-indol-3-yl)-2,2-difluoroethyl)cyclopropanesulfonamide]
< 100 nM	Cc1ccnc(C(F)(F)F)c1-c1cc2c(cc1F)c([C@H](NS(=O)(=O)C1CC1)C(F)F)cn2CC(C)(C)C [Compound 129, N-((1S)-2,2-difluoro-1-(5-fluoro-6-(4-methyl-2-(trifluoromethyl)pyridin-3-yl)-1-neopentyl-1H-indol-3-yl)ethyl)cyclopropanesulfonamide]
100 to 1000 nM	COc1cccc(C#N)c1-c1ccc2c([C@H](NS(=O)(=O)C3CC3)C(F)(F)F)cn(CC(C)(C)C)c2c1 [Compound 7, (S)—N-(1-(6-(2-cyano-6-methoxyphenyl)-1-neopentyl-1H-indol-3-yl)-2,2,2-trifluoroethyl)cyclopropanesulfonamide]
< 100 nM	CC(C)(C)Cn1cc([C@H](NS(=O)(=O)C2CC2)C(F)F)c2ccc(-c3ncc(Cl)cc3F)cc21 [Compound 77, (S)—N-(1-(6-(5-chloro-3-fluoropyridin-2-yl)-1-neopentyl-1H-indol-3-yl)-2,2-difluoroethyl)cyclopropanesulfonamide]
< 100 nM	CC(C)(C)Cn1cc([C@H](NS(=O)(=O)C2CC2)C(F)F)c2cc(F)c(-c3cc(Cl)cnc3C(F)(F)F)cc21 [Compound 143, (S)—N-(1-(6-(5-chloro-2-(trifluoromethyl)pyridin-3-yl)-5-fluoro-1-neopentyl-1H-indol-3-yl)-2,2-difluoroethyl)cyclopropanesulfonamide]
< 100 nM	CC(C)(C)Cn1cc([C@H](NS(=O)(=O)C2CC2)C(F)F)c2cc(F)c(-c3ccc(C#N)nc3C(F)(F)F)cc21 [Compound 110, (S)—N-(1-(6-(6-cyano-2-(trifluoromethyl)pyridin-3-yl)-5-fluoro-1-neopentyl-1H-indol-3-yl)-2,2-difluoroethyl)cyclopropanesulfonamide]
< 100 nM	CN(C)S(=O)(=O)N[C@@H](c1cn(CC(C)(C)C)c2cc(-c3cccnc3C(F)(F)F)c(F)cc12)C(F)F [Compound 43]
< 100 nM	CC(C)(C)Cn1cc([C@H](NS(=O)(=O)C2CCC2)C(F)F)c2cc(F)c(-c3c(C(F)(F)F)ccnc3C#N)cc21 [Compound 135, N-((1S)-1-(6-(2-cyano-4-(trifluoromethyl)pyridin-3-yl)-5-fluoro-1-neopentyl-1H-indol-3-yl)-2,2-difluoroethyl)cyclobutanesulfonamide]

Source: patent US20260285846A1, “REV-ERB AGONISTS FOR TH17-MEDIATED INFLAMMATORY DISORDERS” (UNIVERSITY OF FLORID RESEARCH FOUNDATION, iNCORPORATED, priority 2021, published 2026)
